# Laboratory results taken from US10314823B2, “Substituted 1,2-dihydro-3H-pyrrolo[1,2-c]imidazol-3-one antibacterial compounds” (IDORSIA PHARMACEUTICALS LTD, priority 2015, dated 2019).
# How the values were obtained:
# Type in all cases: cell-based
# P. aeruginosa ATCC27853 = experiment: Bacterial growth minimal inhibitory concentration (CLSI broth microdilution); settings: quinolone-sensitive strain, cation-adjusted Mueller-Hinton Broth; for MIC: Pseudomonas aeruginosa, ATCC27853
# Procedure, shortened: (§1)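 Following CLSI document M7-A7, minimal inhibitory concentrations in mg/L come from microdilution in cation-adjusted Mueller-Hinton broth, tested against quinolone-resistant K. pneumoniae A-651 and quinolone-sensitive E. coli ATCC25922 and P. aeruginosa ATCC27853.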
# K. pneumoniae A-651 = experiment: as above; settings: multiply resistant strain (in particular quinolone-resistant), cation-adjusted Mueller-Hinton Broth; for MIC: Klebsiella pneumoniae, A651
# Procedure, shortened: as §1
# E. coli ATCC25922 = experiment: as above; settings: quinolone-sensitive strain, cation-adjusted Mueller-Hinton Broth; for MIC: Escherichia coli, ATCC25922
# Procedure, shortened: as §1
# wild-type E. coli A-1261 = experiment: MIC of prodrug with or without alkaline phosphatase or esterase
# Description: Minimal Inhibitory Concentrations (MICs; mg/L) were determined in cation-adjusted Mueller-Hinton Broth by a microdilution method following the description given in “Methods for Dilution Antimicrobial Susceptibility Tests for Bacteria that Grow Aerobically”, Approved standard, 7th ed., Clinical and Laboratory Standards Institute (CLSI) Document M7-A7, Wayne, Pa., USA (2006).
# The compound of Example 86 was tested against wild-type E. coli A-1261 in the absence of alkaline phosphatase or esterase, in the presence of an alkaline phosphatase and in the presence of an esterase. The corresponding antibacterial test results are given in Table 2 hereafter (MICs in mg/L).
Compound,MIC (P. aeruginosa ATCC27853),MIC (K. pneumoniae A-651),MIC (E. coli ATCC25922),further results
"CCC1(C#CC#Cc2cc3n(c2)C(=O)N(CC[C@](C)(C(=O)NO)S(C)(=O)=O)C3)CN(C)C1 [Example 79, (2R)-4-(6-((3-ethyl-1-methylazetidin-3-yl)buta-1,3-diyn-1-yl)-3-oxo-1H-pyrrolo[1,2-c]imidazol-2(3H)-yl)-N-hydroxy-2-methyl-2-(methylsulfonyl)butanamide]",4 µg/mL,2 µg/mL,2 µg/mL,–
"[2H]C([2H])S(=O)(=O)[C@](C)(CCN1Cc2cc(C#CC#CC3CN(C)C3)cn2C1=O)C(=O)NO [Example 80, (2R)—N-hydroxy-2-methyl-2-((methyl-d2)sulfonyl)-4-(6-((1-methylazetidin-3-yl)buta-1,3-diyn-1-yl)-3-oxo-1H-pyrrolo[1,2-c]imidazol-2(3H)-yl)butanamide]",0.5 µg/mL,0.5 µg/mL,0.5 µg/mL,–
"[2H]C([2H])([2H])S(=O)(=O)[C@](C)(CCN1Cc2cc(C#CC#CC3CN(CCO)C3)cn2C1=O)C(=O)NO [Example 81, (2R)—N-hydroxy-4-(6-((1-(2-hydroxyethyl)azetidin-3-yl)buta-1,3-diyn-1-yl)-3-oxo-1H-pyrrolo[1,2-c]imidazol-2(3H)-yl)-2-methyl-2-((methyl-d3)sulfonyl)butanamide]",1 µg/mL,2 µg/mL,1 µg/mL,–
"CN1CC(C#Cc2ccc(-c3cc4n(c3)C(=O)N(CC[C@](C)(C(=O)NO)S(C)(=O)=O)C4)c(F)c2)C1 [Example 84, (2R)-4-(6-(2-fluoro-4-((1-methylazetidin-3-yl)ethynyl)phenyl)-3-oxo-1H-pyrrolo[1,2-c]imidazol-2(3H)-yl)-N-hydroxy-2-methyl-2-(methylsulfonyl)butanamide]",2 µg/mL,1 µg/mL,0.5 µg/mL,–
"CN1CC(C#Cc2ccc(-c3cc4n(c3)C(=O)N(CC[C@](C)(C(=O)NO)S(C)(=O)=O)C4)cc2)C1 [Example 85, (2R)—N-hydroxy-2-methyl-4-(6-(4-((1-methylazetidin-3-yl)ethynyl)phenyl)-3-oxo-1H-pyrrolo[1,2-c]imidazol-2(3H)-yl)-2-(methylsulfonyl)butanamide]",1 µg/mL,1 µg/mL,0.5 µg/mL,–
"C[C@@](CCN1Cc2cc(C#CC#CC3CN(CCO)C3)cn2C1=O)(C(=O)NOC(=O)CCc1ccccc1OP(=O)(O)O)S(C)(=O)=O [Example 86, (2R)-2-(3-((4-(6-((1-(2-hydroxyethyl)azetidin-3-yl)buta-1,3-diyn-1-yl)-3-oxo-1H-pyrrolo[1,2-c]imidazol-2(3H)-yl)-2-methyl-2-(methylsulfonyl)butanamido)oxy)-3-oxopropyl)phenyl dihydrogen phosphate]",–,–,–,MIC for E. coli A-1261 In the presence of an alkaline phosphatase (2 i.U./mL) (wild-type E. coli A-1261; alkaline phosphatase 2 i.U./mL): 1 µg/mL; MIC for E. coli A-1261 In the presence of an esterase (10 i.U./mL) (wild-type E. coli A-1261; esterase 10 i.U./mL): 16 µg/mL; MIC for E. coli A-1261 In the absence of alkaline phosphatase or esterase (wild-type E. coli A-1261; no alkaline phosphatase or esterase): 16 µg/mL
"CN1CCC(C#Cc2ccc(-c3cc4n(c3)C(=O)N(CC[C@](C)(C(=O)NO)S(C)(=O)=O)C4)c(F)c2)CC1 [Example 87, (2R)-4-(6-(2-fluoro-4-((1-methylpiperidin-4-yl)ethynyl)phenyl)-3-oxo-1H-pyrrolo[1,2-c]imidazol-2(3H)-yl)-N-hydroxy-2-methyl-2-(methylsulfonyl)butanamide]",8 µg/mL,> 8 µg/mL,4 µg/mL,–
"C[C@@](CCN1Cc2cc(-c3ccc(C#CC4CN(CCO)C4)cc3F)cn2C1=O)(C(=O)NO)S(C)(=O)=O [Example 88, (2R)-4-(6-(2-fluoro-4-((1-(2-hydroxyethyl)azetidin-3-yl)ethynyl)phenyl)-3-oxo-1H-pyrrolo[1,2-c]imidazol-2(3H)-yl)-N-hydroxy-2-methyl-2-(methylsulfonyl)butanamide]",2 µg/mL,2 µg/mL,0.5 µg/mL,–
"C[C@@](CCN1Cc2cc(C#CC#CC3CCN(C4COC4)C3)cn2C1=O)(C(=O)NO)S(C)(=O)=O (stereo partly drawn) [Example 89, (2R)—N-hydroxy-2-methyl-2-(methylsulfonyl)-4-(6-((1-(oxetan-3-yl)pyrrolidin-3-yl)buta-1,3-diyn-1-yl)-3-oxo-1H-pyrrolo[1,2-c]imidazol-2(3H)-yl)butanamide]",2 µg/mL,1 µg/mL,1 µg/mL,–
"C[C@@](CCN1Cc2cc(C#CC#CC3CN(C4CC(O)C4)C3)cn2C1=O)(C(=O)NO)S(C)(=O)=O (stereo partly drawn) [Example 90, (2R)—N-hydroxy-4-(6-((1-((1r,3r)-3-hydroxycyclobutyl)azetidin-3-yl)buta-1,3-diyn-1-yl)-3-oxo-1H-pyrrolo[1,2-c]imidazol-2(3H)-yl)-2-methyl-2-(methylsulfonyl)butanamide]",–,–,–,MIC for P. aeruginosa ATCC27853 (P. aeruginosa ATCC27853): 1 µg/mL; MIC for K. Pneumoniae A-651 (K. pneumoniae A-651): 0.5 µg/mL; MIC for E. coli ATCC25922 (E. coli ATCC25922): 0.5 µg/mL
"C[C@@](CCN1Cc2cc(C#CC#CC3CN([C@H]4C[C@@H](O)C4)C3)cn2C1=O)(C(=O)NO)S(C)(=O)=O [Example 91, (2R)—N-hydroxy-4-(6-((1-((1s,3s)-3-hydroxycyclobutyl)azetidin-3-yl)buta-1,3-diyn-1-yl)-3-oxo-1H-pyrrolo[1,2-c]imidazol-2(3H)-yl)-2-methyl-2-(methylsulfonyl)butanamide]",–,–,–,MIC for P. aeruginosa ATCC27853 (P. aeruginosa ATCC27853): 1 µg/mL; MIC for K. Pneumoniae A-651 (K. pneumoniae A-651): 0.5 µg/mL; MIC for E. coli ATCC25922 (E. coli ATCC25922): 0.5 µg/mL
"C[C@H]1[C@H](C#CC#Cc2cc3n(c2)C(=O)N(CC[C@](C)(C(=O)NO)S(C)(=O)=O)C3)CN1C [Example 92, (2R)-4-(6-(((2S,3R)-1,2-dimethylazetidin-3-yl)buta-1,3-diyn-1-yl)-3-oxo-1H-pyrrolo[1,2-c]imidazol-2(3H)-yl)-N-hydroxy-2-methyl-2-(methylsulfonyl)butanamide]",0.25 µg/mL,0.25 µg/mL,0.25 µg/mL,–
"C[C@@H]1[C@@H](C#CC#Cc2cc3n(c2)C(=O)N(CC[C@](C)(C(=O)NO)S(C)(=O)=O)C3)CN1C [Example 93, (2R)-4-(6-(((2R,3S)-1,2-dimethylazetidin-3-yl)buta-1,3-diyn-1-yl)-3-oxo-1H-pyrrolo[1,2-c]imidazol-2(3H)-yl)-N-hydroxy-2-methyl-2-(methylsulfonyl)butanamide]",0.25 µg/mL,0.5 µg/mL,0.25 µg/mL,–
"CN1C[C@@H](C#CC#Cc2cc3n(c2)C(=O)N(CC[C@](C)(C(=O)NO)S(C)(=O)=O)C3)[C@@H]1CO [Example 95, (2R)—N-hydroxy-4-(6-(((2R,3R)-2-(hydroxymethyl)-1-methylazetidin-3-yl)buta-1,3-diyn-1-yl)-3-oxo-1H-pyrrolo[1,2-c]imidazol-2(3H)-yl)-2-methyl-2-(methylsulfonyl)butanamide]",0.5 µg/mL,1 µg/mL,1 µg/mL,–
"C[C@@H]1[C@H](C#CC#Cc2cc3n(c2)C(=O)N(CC[C@](C)(C(=O)NO)S(C)(=O)=O)C3)CN1C [Example 96, (2R)-4-(6-(((2R,3R)-1,2-dimethylazetidin-3-yl)buta-1,3-diyn-1-yl)-3-oxo-1H-pyrrolo[1,2-c]imidazol-2(3H)-yl)-N-hydroxy-2-methyl-2-(methylsulfonyl)butanamide]",2 µg/mL,4 µg/mL,4 µg/mL,–
"CN1C[C@H](C#CC#Cc2cc3n(c2)C(=O)N(CC[C@](C)(C(=O)NO)S(C)(=O)=O)C3)[C@H]1CO [Example 97, (2R)—N-hydroxy-4-(6-(((2S,3S)-2-(hydroxymethyl)-1-methylazetidin-3-yl)buta-1,3-diyn-1-yl)-3-oxo-1H-pyrrolo[1,2-c]imidazol-2(3H)-yl)-2-methyl-2-(methylsulfonyl)butanamide]",0.5 µg/mL,1 µg/mL,0.5 µg/mL,–
"CN1C[C@H](C#CC#Cc2cc3n(c2)C(=O)N(CC[C@](C)(C(=O)NO)S(C)(=O)=O)C3)[C@H]1CF [Example 98, (2R)—N-hydroxy-4-(6-(((2S,3S)-2-(fluoromethyl)-1-methylazetidin-3-yl)buta-1,3-diyn-1-yl)-3-oxo-1H-pyrrolo[1,2-c]imidazol-2(3H)-yl)-2-methyl-2-(methylsulfonyl)butanamide]",0.5 µg/mL,0.25 µg/mL,0.063 µg/mL,–
"C[C@@](CCN1Cc2cc(C#CC#C[C@H]3C[C@H](CO)N(C4COC4)C3)cn2C1=O)(C(=O)NO)S(C)(=O)=O [Example 100, (2R)—N-hydroxy-4-(6-(((3R,5R)-5-(hydroxymethyl)-1-(oxetan-3-yl)pyrrolidin-3-yl)buta-1,3-diyn-1-yl)-3-oxo-1H-pyrrolo[1,2-c]imidazol-2(3H)-yl)-2-methyl-2-(methylsulfonyl)butanamide]",4 µg/mL,4 µg/mL,4 µg/mL,–
"(2R)-4-(6-((1-isopropylazetidin-3-yl)buta-1,3-diyn-1-yl)-3-oxo-1H-pyrrolo[1,2-c]imidazol-2(3H)-yl)-2-methyl-2-(methylsulfonyl)-N-((tetrahydro-2H-pyran-2-yl)oxy)butanamide [Example 59]",–,–,–,MIC for P. aeruginosa ATCC27853 (P. aeruginosa ATCC27853): 0.5 µg/mL; MIC for K. Pneumoniae A-651 (K. pneumoniae A-651): 0.5 µg/mL; MIC for E. coli ATCC25922 (E. coli ATCC25922): 1 µg/mL
